Laboratory results: patent publication US20220267736A1, “PLURIPOTENT STEM CELL AGGREGATION SUPPRESSOR” (KANEKA CORPORATION, priority 2017, published 2022)

Tested on: human iPS cells (TkDN4-M)
Assay: Cell aggregate size distribution (widest portion) from micrographs during suspension culture
Type: cell-based
Details: cytochalasin D 20 nM, jasplakinolide 20 nM, demecolcine 10 ng/mL
Experimental: Cell suspensions were prepared in the same manner as in Example 2, and separately, the concentrations of the suppressors of cell aggregation were adjusted so that the final concentration of demecolcine (same as above) was 10 mg/mL (26.9 mM), the final concentration of cytochalasin D (same as above) was 0.51 mg/mL (1 mM), the concentration of DMSO (the same as above) was the stock concentration, or the final concentration of jasplakinolide (Cayman, 11705) was 0.14 mg/mL (0.2 mM). Then the concentration-adjusted cell aggregation suppressors were added to the cell suspensions so that the final concentration of demecolcine was 10 ng/mL, the final concentration of cytochalasin D was 20 nM, the final concentration of DMSO was 1% (v/v), or the final concentration of jasplakinolide was 20 nM, and the cells were seeded at a rate of 4 mL/well in a 6-well plate for suspension culture (Sumitomo Bakelite Co., Ltd., Japan). The cell-seeded plate was subjected to a swirling culture on a rotary shaker (OPTIMA, Inc., Japan) at a speed of 90 rpm along the horizontal plane to draw a circle with a swirling width (diameter) of 25 mm and cells were subjected to suspension culture under the environment of 5% CO2 and 37° C. After the next day of culture (Day 1 of culture), the culture medium was exchanged daily with a fresh culture medium (Essential 8™ culture medium containing BSA (Wako Pure Chemical Industries, Ltd.) at a final concentration of 5 mg/mL), and the culture was continued until 5 days after the start of culture. Images were obtained by phase contrast microscopy every day during culture. While 182 to 252 cell aggregates in images obtained on Day 1 of culture being observed and compared using a micrograph scale, the width (referred to as “φ”) of the widest portion of each cell aggregate was measured, distribution thereof was examined, and average±standard deviation was calculated. The concentration of glucose contained in the culture supernatant collected at the time of culture medium exchange was measured with biosensor BF-5iD (Prince Measuring Equipment Co., Ltd.) to calculate glucose consumption.

[1] = Day 1, size range 40− μm, DMSO 1%
[2] = Day 1, size range 60− μm, DMSO 1%
[3] = Day 1, size range 80− μm, DMSO 1%
[4] = Day 1, size range 100− μm, DMSO 1%
[5] = Day 1, size range 120− μm, DMSO 1%
[6] = Day 1, size range 140− μm, DMSO 1%
[7] = Day 1, size range 160− μm, DMSO 1%
[8] = Day 1, size range 180− μm, DMSO 1%
[9] = Day 1, size range 200− μm, DMSO 1%
[10] = Day 1, size range 220− μm, DMSO 1%
[11] = Day 1, size range 240− μm, DMSO 1%
[12] = Day 1, size range 260− μm, DMSO 1%
[13] = Day 1, size range 280− μm, DMSO 1%
[14] = Day 1, size range 300− μm, DMSO 1%

Which “percentage of cell aggregates whose size (diameter) was 40 μm or more and 300 μm or less, relative to the total cell aggregate count” value (Day 1, DMSO 1%) does the source give for `C/C1=C\[C@H](C)C[C@H](C)OC(=O)C[C@H](c2ccc(O)cc2)NC(=O)[C@@H](Cc2c(Br)[nH]c3ccccc23)N(C)C(=O)[C@H](C)NC(=O)[C@@H](C)C1` [jasplakinolide] here?
The value was 100%.

And the “percentage of cell aggregates whose size (diameter) was 60 μm or more and 300 μm or less” value (Day 1, DMSO 1%)?
The value was 98.1%.

And the “percentage of cell aggregates whose size (diameter) was 80 μm or more and 300 μm or less” value (Day 1, DMSO 1%)?
Its value is 96.2%.

And the “percentage of cell aggregates whose size (diameter) was 100 μm or more and 300 μm or less” value (Day 1, DMSO 1%)?
Its value is 95.7%.

And the “Number of cell aggregates by size” value [1]?
Its value is 4.

What about the “Percentage of cell aggregates by size” value [1] of the same molecule?
The value was 1.9%.

And the “Number of cell aggregates by size” value [2]?
The value was 4.

What about the “Percentage of cell aggregates by size” value [2] of the same molecule?
Its value is 1.9%.

And the “Number of cell aggregates by size” value [3]?
The value was 1.

What about the “Percentage of cell aggregates by size” value [3] of the same molecule?
Its value is 0.5%.

What about the “Number of cell aggregates by size” value [4] of the same molecule?
Its value is 8.

What about the “Percentage of cell aggregates by size” value [4] of the same molecule?
Its value is 3.9%.

And the “Number of cell aggregates by size” value [5]?
Its value is 23.

And the “Percentage of cell aggregates by size” value [5]?
The value was 11.2%.

And the “Number of cell aggregates by size” value [6]?
The value was 52.

What about the “Percentage of cell aggregates by size” value [6] of the same molecule?
Its value is 25.2%.

And the “Number of cell aggregates by size” value [7]?
Its value is 66.

What about the “Percentage of cell aggregates by size” value [7] of the same molecule?
The value was 32.0%.

What about the “Number of cell aggregates by size” value [8] of the same molecule?
The value was 30.

What about the “Percentage of cell aggregates by size” value [8] of the same molecule?
Its value is 14.6%.

What about the “Number of cell aggregates by size” value [9] of the same molecule?
The value was 9.

And the “Percentage of cell aggregates by size” value [9]?
The value was 4.4%.

What about the “Number of cell aggregates by size” value [10] of the same molecule?
Its value is 4.

And the “Percentage of cell aggregates by size” value [10]?
The value was 1.9%.

What about the “Number of cell aggregates by size” value [11] of the same molecule?
The value was 1.

And the “Percentage of cell aggregates by size” value [11]?
Its value is 0.5%.

What about the “Number of cell aggregates by size” value [12] of the same molecule?
The value was 1.

And the “Percentage of cell aggregates by size” value [12]?
The value was 0.5%.

And the “Number of cell aggregates by size” value [13]?
The value was 2.

What about the “Percentage of cell aggregates by size” value [13] of the same molecule?
Its value is 1.0%.

What about the “Number of cell aggregates by size” value [14] of the same molecule?
The value was 1.

What about the “Percentage of cell aggregates by size” value [14] of the same molecule?
The value was 0.5%.

And the “average ± standard deviation of cell aggregate sizes (diameters)” value (Day 1 of culture, DMSO 1% (v/v), Y-27632 10 μM)?
The value was 162.7±37.2 μm.
